Reference: patent US20160263048A1, “BIOADHESIVE POLYMER-BASED CONTROLLED-RELEASE SYSTEMS, PRODUCTION PROCESS AND CLINICAL USES THEREOF” (priority 2010, published 2016)
Read-outs that look alike come from different tables or passages of the source.

Legend:
[1] = cited from earlier work
[2] = Solubility in water; format: physicochemical; conditions: molar ratio TrA/HPβCD 1:10
Excerpt: Currently used cyclodextrins are preferably semi-synthetic derivatives of β-cyclodextrin, soluble in highly polar organic solvents, marketed by Roquette or Wacker such as hydroxypropyl-βCD (HPβCD) and Methyl-βCD. The HPβCD marketed by Roquette under the name Kleptose® HP is an amorphous white powder, with a solubility in water higher than 1 g/ml. Further to this, it has a good stability both in acidic and in basic milieu and can be used to administrate drugs both by injection and by the oral route. The second one, under the name Kleptose® Crysmeb® exp, is a mixture of cyclodextrins which contain from one to seven methyl groups. Crysmeb® has an average of 4 methyl groups for one cyclodextrin molecule and has an average molecular weight of 1191 dalton. It is a white powder, easily soluble in water and its solubility grows with the temperature, and, in addition, it is very stable both in and acidic and in basic milieus.
Such a capability was tested for the buccal release of triamcinolone acetonide (TrA), a corticosteroid drug poorly soluble in water. According to the European Pharmacopeia, TrA is a drug that is practically not soluble in water, since its solubility in this vehicle is about 0.02 mg/ml. The presence of HPβCD in the film enhances TrA solubility by 600 fold, i.e., to about […] (molar ratio TrA/HPβCD 1:10). […]

Row | enhancement of TrA solubility by presence of HPβCD [2] | TrA solubility in presence of HPβCD ([2]; no further enhancement at higher HPβCD concentration) | Compound | solubility in water ([1]; according to the European Pharmacopeia) | solubility in water ([1]; Kleptose® HP marketed by Roquette)
1 | 600 fold | about 4 % w/v | CC1(C)O[C@@H]2C[C@H]3[C@@H]4CCC5=CC(=O)C=C[C@]5(C)[C@@]4(F)[C@@H](O)C[C@]3(C)[C@]2(C(=O)CO)O1 [TrA, triamcinolone acetonide] | about 0.02 mg/ml | –
2 | – | – | hydroxypropyl-βCD [HPβCD] | – | higher than 1 g/ml
